Assay results taken from ChEMBL document CHEMBL5505958, “Optimization of sequence and chiral content enhances therapeutic potential of tilapia piscidin peptides” (Eur J Med Chem, 2024).
≈ marks a conversion by molar mass, not a printed value. Calls of active or inactive are those of the source. The calls are words filed in the database; no cut-off is given here.

Legend:
[1] = tested on: Klebsiella oxytoca; experiment: Antibacterial activity against Klebsiella oxytoca 13985 assessed as inhibition of bacterial growth incubated for 16 to 20 hrs; assay type: functional; details: time 16-20 hrs
[2] = tested on: Klebsiella pneumoniae; experiment: Antibacterial activity against Klebsiella pneumoniae TL 297 assessed as inhibition of bacterial growth incubated for 16 to 20 hrs; assay type: functional; details: time 16-20 hrs
[3] = tested on: Pseudomonas aeruginosa; experiment: Bactericidal activity against Pseudomonas aeruginosa 19660 assessed as inhibition of bacterial growth incubated for 16 to 20 hrs; assay type: functional; details: time 16-20 hrs
[4] = tested on: Klebsiella oxytoca; experiment: Bactericidal activity against Klebsiella oxytoca 13985 assessed as inhibition of bacterial growth incubated for 16 to 20 hrs; assay type: functional; details: time 16-20 hrs
[5] = tested on: Klebsiella pneumoniae; experiment: Bactericidal activity against Klebsiella pneumoniae TL 297 assessed as inhibition of bacterial growth incubated for 16 to 20 hrs; assay type: functional; details: time 16-20 hrs
[6] = tested on: Erythrocyte; experiment: Hemolytic activity in human Red blood cells assessed as hemolysis at 200 uM incubated for 1 hrs; assay type: toxicity, cell-based
[7] = tested on: Klebsiella pneumoniae; experiment: Antibacterial activity against Klebsiella pneumoniae BAA 2473 assessed as bacterial eradication measured at 10 hrs; assay type: functional, organism-based
[8] = tested on: Lipopolysaccharide (LPS); experiment: Displacement of BODIPY-TR-cadaverine from Klebsiella pneumoniae BAA 2473 lipopolysaccharide (LPS) assessed as increase in fluorescence intensity at 1.56 uM by fluorescence spectrophotometric analysis; assay type: subcellular
[9] = tested on: Cell membrane; experiment: Induction of outer cell membrane permeabilization in Klebsiella pneumoniae BAA 2473 assessed as increase in fluorescence intensity by PI staining based analysis; assay type: cell membranes
[10] = tested on: Klebsiella pneumoniae; experiment: Antibacterial activity against Klebsiella pneumoniae BAA 2473 assessed as doxycycline MIC; assay type: functional
[11] = tested on: Klebsiella pneumoniae; experiment: Antibacterial activity against Klebsiella pneumoniae BAA 2473 assessed as inhibition of bacterial growth in presence of meropenem; assay type: functional
[12] = tested on: Klebsiella pneumoniae; experiment: Antibacterial activity against Klebsiella pneumoniae BAA 2473 assessed as meropenem MIC; assay type: functional
[13] = tested on: Klebsiella pneumoniae; experiment: Antibacterial activity against Klebsiella pneumoniae BAA 2473 assessed as inhibition of bacterial growth in presence of ciprofloxacin; assay type: functional
[14] = tested on: Klebsiella pneumoniae; experiment: Synergistic antibacterial activity against Klebsiella pneumoniae BAA 2473 assessed as fractional inhibitory concentration index in presence of doxycycline by checkerboard assay; assay type: functional
[15] = tested on: Klebsiella pneumoniae; experiment: Synergistic antibacterial activity against Klebsiella pneumoniae BAA 2473 assessed as fractional inhibitory concentration index in presence of ciprofloxacin by checkerboard assay; assay type: functional
[16] = Toxicity in C57BL/6 mouse assessed as mortality at 5 to 10 mg/kg, iv measured for 7 days; assay type: organism-based; details: in vivo, 168 h, dose 5-10 mg/kg, time 7 day
[17] = Toxicity in C57BL/6 mouse assessed as survival rate at 12.5 to 15 mg/kg, iv measured for 7 days; assay type: organism-based; details: in vivo, dose 12.5-15 mg/kg, time 7 day
[18] = Toxicity in C57BL/6 mouse assessed as mortality at 20 mg/kg, iv measured for 2 days; assay type: organism-based; details: in vivo, time 2 day
[19] = Toxicity in C57BL/6 mouse assessed as effect on BUN level upto 10 mg/kg, iv measured for 7 days; assay type: organism-based; details: in vivo, 168 h, time 7 day
[20] = Toxicity in C57BL/6 mouse assessed as increase in creatinine level upto 12.5 mg/kg, iv measured for 7 days; assay type: organism-based; details: in vivo, 168 h, time 7 day
[21] = Toxicity in C57BL/6 mouse assessed as change in body weight at 15 mg/kg, iv measured for 7 days; assay type: organism-based; details: in vivo, 168 h, time 7 day
[22] = Toxicity in C57BL/6 mouse assessed as effect on GOT level in liver upto 7.5 mg/kg, iv measured for 7 days; assay type: organism-based; details: in vivo, 168 h, time 7 day
[23] = tested on: Klebsiella pneumoniae; experiment: Antimicrobial activity against drug-resistant Klebsiella pneumoniae BAA 2473 infected in C57BL/6 mouse assessed as reduction in bacterial load at 5 mg/kg, po administered for 2 hrs and measured at 24 hrs; assay type: functional, organism-based; details: time 26.0 hrs
[24] = tested on: Staphylococcus aureus; experiment: Antibacterial activity against Staphylococcus aureus 10780 assessed as inhibition of bacterial growth incubated for 16 to 20 hrs; assay type: functional; details: time 16-20 hrs
[25] = tested on: Staphylococcus aureus; experiment: Bactericidal activity against Staphylococcus aureus 10780 assessed as inhibition of bacterial growth incubated for 16 to 20 hrs; assay type: functional; details: time 16-20 hrs
[26] = tested on: Erythrocyte; experiment: Hemolytic activity in human Red blood cells assessed as hemolysis at 3.13 uM incubated for 1 hrs; assay type: toxicity, cell-based
[27] = tested on: Klebsiella pneumoniae; experiment: Antibacterial activity against Klebsiella pneumoniae BAA 2473 assessed as bacterial eradication measured at 2 hrs; assay type: functional
[28] = Toxicity in C57BL/6 mouse assessed as change in GPT level in liver at 15 mg/kg, iv measured for 7 days; assay type: organism-based; details: in vivo, 168 h, time 7 day
[29] = tested on: Klebsiella pneumoniae; experiment: Antimicrobial activity against drug-resistant Klebsiella pneumoniae BAA 2473 infected in C57BL/6 mouse assessed as fold reduction in bacterial load at 5 mg/kg, po administered for 2 hrs and measured at 24 hrs; assay type: functional

Q: With `CC(C)C[C@H](NC(=O)[C@H](CCCCN)NC(=O)[C@@H](CCCCN)NC(=O)[C@H](CC(C)C)NC(=O)[C@@H](N)Cc1ccccc1)C(=O)N[C@H](CC(C)C)C(=O)N[C@@H](CCCCN)C(=O)N[C@@H](C)C(=O)N[C@H](CC(C)C)C(=O)N[C@@H](Cc1ccccc1)C(=O)N[C@@H](CO)C(=O)N[C@H](C)C(=O)N1CCC[C@H]1C(=O)N[C@@H](CCCCN)C(=O)N[C@H](C)C(=O)N[C@@H](CC(C)C)C(=O)N[C@@H](CCCCN)C(=O)N[C@H](CCCNC(=N)N)C(=O)N[C@@H](CC(C)C)C(=O)N[C@@H](CC(C)C)C(=O)N[C@H](CCCNC(=N)N)C(=O)N[C@@H](CCCNC(=N)N)C(=O)N[C@@H](CCCNC(=N)N)C(=O)N[C@H](CCCNC(=N)N)C(=O)N[C@@H](CCCNC(=N)N)C(=O)O` as the molecule, how does the MIC [1] read?
A: The MIC was 1.56 µM (≈ 4.8 µg/mL).

Q: And the MIC [2]?
A: Its MIC is 12.5 µM (≈ 38.5 µg/mL).

Q: And the MBC [3]?
A: Its MBC is 3.13 µM (≈ 9.64 µg/mL).

Q: What about the MBC [4] of the same molecule?
A: The MBC was 1.56 µM (≈ 4.8 µg/mL).

Q: What about the MBC [5] of the same molecule?
A: Its MBC is 6.25 µM (≈ 19.2 µg/mL).

Q: What about the Activity [6] of the same molecule?
A: The Activity was “Non-Toxic”.

Q: And the Activity [7]?
A: Its Activity is “Active”.

Q: And the Activity [8]?
A: The Activity was “Active”.

Q: What about the Activity [9] of the same molecule?
A: Its Activity is “Active”.

Q: What about the MIC [10] of the same molecule?
A: Its MIC is 6.25 µM.

Q: And the MIC [11]?
A: The MIC was 0.78 µM.

Q: And the MIC [12]?
A: Its MIC is 3.12 µM.

Q: And the MIC [13]?
A: Its MIC is 0.097 µM.

Q: And the “fractional inhibitory concentration index (FICI)” value [14]?
A: Its value is 0.375.

Q: And the “fractional inhibitory concentration index (FICI)” value [15]?
A: The value was 1.003.

Q: What about the Activity [16] of the same molecule?
A: Its Activity is “Non-Toxic”.

Q: And the survival at 168 h [17]?
A: Its survival at 168 h is 80%.

Q: And the mortality at 48 h [18]?
A: Its mortality at 48 h is 100%.

Q: What about the Activity [19] of the same molecule?
A: Its Activity is “Non-Toxic”.

Q: What about the Activity [20] of the same molecule?
A: Its Activity is “Non-Toxic”.

Q: What about the Activity [21] of the same molecule?
A: Its Activity is “Non-Toxic”.

Q: What about the Activity [22] of the same molecule?
A: Its Activity is “Non-Toxic”.

Q: And the Activity [23]?
A: The Activity was “inactive”.

Q: For H-FIHHIIGGLFSAGKAIHRLIRRRRR-OH, which MIC [24] is on record?
A: The MIC was 0.78 µM.

Q: What about the MBC [25] of the same molecule?
A: The MBC was 0.78 µM.

Q: And the Activity [26]?
A: Its Activity is “Non-Toxic”.

Q: And the Activity [27]?
A: Its Activity is 100%.

Q: With `CC(C)C[C@H](NC(=O)[C@@H](C)NC(=O)[C@@H](CCCCN)NC(=O)[C@H](CC(C)C)NC(=O)[C@@H](CC(C)C)NC(=O)[C@@H](CCCCN)NC(=O)[C@H](CCCCN)NC(=O)[C@@H](CC(C)C)NC(=O)[C@H](N)Cc1ccccc1)C(=O)N[C@H](Cc1ccccc1)C(=O)N[C@H](CO)C(=O)N[C@@H](C)C(=O)N1CCC[C@@H]1C(=O)N[C@H](CCCCN)C(=O)N[C@@H](C)C(=O)N[C@H](CC(C)C)C(=O)N[C@H](CCCCN)C(=O)N[C@@H](CCCNC(=N)N)C(=O)N[C@H](CC(C)C)C(=O)N[C@H](CC(C)C)C(=O)N[C@@H](CCCNC(=N)N)C(=O)N[C@H](CCCNC(=N)N)C(=O)N[C@H](CCCNC(=N)N)C(=O)N[C@@H](CCCNC(=N)N)C(=O)N[C@@H](CCCNC(=N)N)C(=O)O` as the molecule, how does the MIC [1] read?
A: Its MIC is 3.13 µM (≈ 9.64 µg/mL).

Q: What about the MIC [2] of the same molecule?
A: The MIC was 6.25 µM (≈ 19.2 µg/mL).

Q: What about the MIC [24] of the same molecule?
A: The MIC was 12.5 µM (≈ 38.5 µg/mL).

Q: What about the MBC [3] of the same molecule?
A: The MBC was 3.13 µM (≈ 9.64 µg/mL).

Q: What about the MBC [4] of the same molecule?
A: Its MBC is 3.13 µM (≈ 9.64 µg/mL).

Q: What about the MBC [5] of the same molecule?
A: The MBC was 6.25 µM (≈ 19.2 µg/mL).

Q: And the MBC [25]?
A: The MBC was 6.25 µM (≈ 19.2 µg/mL).

Q: What about the Activity [6] of the same molecule?
A: The Activity was “Non-Toxic”.

Q: What about the Activity [7] of the same molecule?
A: Its Activity is “Active”.

Q: And the Activity [8]?
A: Its Activity is “Active”.

Q: And the Activity [9]?
A: The Activity was “Active”.

Q: What about the MIC [10] of the same molecule?
A: The MIC was 1.56 µM.

Q: And the MIC [11]?
A: The MIC was 0.78 µM.

Q: And the MIC [12]?
A: Its MIC is 400 µM.

Q: And the MIC [13]?
A: The MIC was 1.56 µM.

Q: What about the “fractional inhibitory concentration index (FICI)” value [14] of the same molecule?
A: Its value is 0.5.

Q: And the “fractional inhibitory concentration index (FICI)” value [15]?
A: Its value is 0.562.

Q: And the Activity [28]?
A: The Activity was “Non-Toxic”.

Q: What about the Activity [23] of the same molecule?
A: Its Activity is “Active”.

Q: And the “fold change (FC)” value [29]?
A: Its value is roughly 10.
